Source: patent publication US20040082503A1, “Methods for treatment of diabetes using peptide analogues of insulin” (Neurocrine Biosciences, Inc., priority 1998, published 2004)
Several values for one entry are separate records, joined by “and”; a condition that tells them apart may be missing. Equal entries are not always repeated.

Experiments:
[1] = system: Insulin B chain (9-23) specific mouse (NOD) T cell clones; assay: Proliferation of insulin-specific NOD T cell clones (summary over clones); format: cell-based; conditions: four NOD derived T cell clones; 50 μM peptide
Procedure: (§1) Insulin specific NOD T cell lines were established by culturing lymphocytes isolated from islet-infiltrating populations by in vitro stimulation with either porcine insulin at 25 μg/ml and irradiated NOD islet cell in the presence of irradiated NOD spleen cells as antigen presenting cells and cytokines. To obtain the infiltrating lymphocytes the following procedures were performed (see Wegmann et al., Eur. J. Immunol. 24:1853, 1994): the pancreas from the NOD mouse was digested with collagenase and individual islets were isolated manually. The infiltrating lymphocytes were then obtained by mild trypsin digestion of the islets. The insulin specific T cell lines or clones were propagated by serial stimulation in the presence of NOD spleen cells, porcine insulin and lymphokines. Clones were obtained by limiting dilution of the B chain (9-23) specific T cell lines in the presence of the antigen presenting cells and porcine insulin at 25 μg/ml. Wells with a growing population of cells following limiting dilution were expanded in appropriate medium, and after one cycle of growth were tested for reactivity to the B chain (9-23) peptide of insulin by evaluating the proliferative response.
(§2) Insulin B chain (9-23) (SEQ ID NO:2) specific mouse (NOD) T cell clones were isolated from infiltrated islets as described in Example 2. Peptide analogues with single alanine substitutions were prepared as described in Example 1. The effect of each analogue on T cell proliferation was then evaluated using an assay performed in 96-well flat bottom microtiter plates (see Daniel et al., Eur. J. Immunol. 25:1056, 1995). Briefly 25,000 T cell clones along with 1 million irradiated NOD spleen cells were cultured in the presence of 50 μg/ml of insulin B chain 9-23 peptide or any of the alanine substituted peptides listed below in triplicate sets. The plates were incubated for a total of 72 hours in 7% carbon dioxide atmosphere with a pulse of 1 μCi/well of tritiated thymidine for the last 6-8 hours of culture. Cells were harvested on a glass fiber filter and the associated radioactivity was counted in a liquid scintillation counter. Results are expressed as mean counts per minute of triplicate wells.
(§3) NOD T cell clones were incubated in the presence of 50 μM of either the native B chain (9-23) peptide or NBI-6024. The data in Table 3 represent the mean of triplicate sample±standard error of the mean. Within Table 3, S.I. (Stimulation Index)=proliferation (cpm) in the presence of the peptide/proliferation (cpm) in medium alone.

[2] = system: Insulin specific NOD T cell clone PD12-2.40; assay: Proliferation of insulin-specific NOD T cell clone PD12-2.40; format: cell-based, mouse (NOD); conditions: for S.I. (Stimulation Index): clone PD12-2.40, 50 μM peptide, cpm with peptide/cpm in medium alone, Exp. 1 and 2
Procedure: as §1, §2, §3

[3] = system: Insulin B chain (9-23) specific murine T cell clone PD12-4.1; assay: Proliferation of insulin B chain (9-23) specific murine T cell clone PD12-4.1; format: cell-based, mouse (NOD); conditions: clone PD12-4.1, 50 μM peptide, Exp. 1; for S.I. (Stimulation Index): cpm with peptide/cpm in medium alone
Procedure: as §1, §2, §3

[4] = system: Murine NOD T cell clone PD12-2.40 response to insulin B chain (9-23) peptide; assay: Antagonism of T cell proliferation assay, clone PD12-2.40; format: cell-based, mouse (NOD); conditions: for % Inhibition: N/A = no inhibition observed
Procedure: Peptide analogues of B chain (9-23) containing alanine substitutions at residue 12, 13, 15 or 16 or the doubly substituted peptide at positions 16 and 19 (A^16,19; NBI-6024) were prepared as described in Example 1. T cell antagonism was detected by evaluating the ability of the peptide analogues to inhibit T cell proliferation induced by native B chain (9-23) (SEQ ID NO:2). In this assay, antigen presenting cells were first irradiated and then incubated with the competing peptide analogue and the native B chain (9-23) peptide. T cells were then added to the culture. Various concentrations of candidate peptide analogues were included in cultures which were incubated for a total of 4 days. Following this incubation period, each culture was pulsed with 1 μCi of [^3H]-thymidine for an additional 12-18 hours. Cultures were then harvested on fiberglass filters and counted as above. Mean CPM and standard error of the mean were calculated from data determined in triplicate cultures.
Within Table 4, the control peptide, NBI-5096, is an unrelated peptide from myelin basic protein. The percent inhibition was calculated as: (1−experimental cpm/insulin peptide cpm)×100%.

[5] = system: NOD mice (spontaneous diabetes); assay: Reduction of incidence of diabetes in NOD mice; format: in vivo, NOD mouse
[6] = system: lymph node and spleen cells from immunized NOD mice; assay: Immunogenicity in NOD mice: proliferative response of lymph node/spleen cells of immunized mice; format: cell-based, NOD mouse
Procedure: FIGS. 17A and 17B are graphs showing the ability of a double substituted peptide (A^16,19) to evoke an immune response. Five female NOD mice were immunized subcutaneously with 20 mg/kg of soluble NBI-6024 on days 1, 6 and 12. On day 15, the mice were sacrificed, the inguinal lymph node cells removed and culture in the presence of varying concentrations (0-50 μM) of either NBI-6024 (FIG. 17A) or insulin B chain (9-23) peptide (FIG. 17B). The extent of T-cell proliferation was determined using ^3H-thymidine incorporation. The response is expressed as mean CPM±SEM of triplicate cultures.
Groups of 3-4 NOD mice were immunized with 100-400 μg of peptide analogues subcutaneously in mannitol acetate buffer three times within a period of 10-15 days. Following the last immunization, lymph node cells and/or spleen cells were used in a proliferation assay in which different concentrations of the immunizing peptide were cultured with the cells for 3-4 days. The last 18 hours of culture included tritiated thymidine. Cells were harvested and counted in a scintillation counter and the response is expressed as CPM±SEM.
The ability of the double substituted peptide NBI-6024 (A^16,19) to induce a cellular immune response in NOD mouse strain was next determined. Two female NOD mice were immunized with 10 mg/kg NBI-6024 either as an aqueous suspension or, as a control, emulsified in complete Freund's adjuvant (CFA). On Day 8, three days following the last injection, the mice were sacrificed, the spleen and inguinal lymph node cells were removed and pooled, and a single-cell suspension was prepared. Cells were cultured in the presence of varying concentrations (0-25 μM) of NBI-6024. The ability of these lymphoid cells to proliferate in response to NBI-6024 was measured in vitro by [^3H]-thymidine incorporation.

[7] = B(9-23) 5 μM + 10 μM competing peptide
[8] = B(9-23) 5 μM + 50 μM competing peptide
[9] = T cells of Mouse #1 immunized with soluble NBI-6024, challenge peptide 1 μM, 0 μM 19,130 ± 2191
[10] = T cells of Mouse #1 immunized with soluble NBI-6024, challenge peptide 5 μM
[11] = T cells of Mouse #1 immunized with soluble NBI-6024, challenge peptide 25 μM
[12] = T cells of Mouse #2 immunized with soluble NBI-6024, challenge peptide 1 μM, 0 μM 21,588 ± 2326
[13] = T cells of Mouse #2 immunized with soluble NBI-6024, challenge peptide 5 μM
[14] = T cells of Mouse #2 immunized with soluble NBI-6024, challenge peptide 25 μM
[15] = T cells of Mouse #3 immunized with soluble NBI-6024, challenge peptide 1 μM, 0 μM 24,006 ± 2803
[16] = T cells of Mouse #3 immunized with soluble NBI-6024, challenge peptide 5 μM
[17] = T cells of Mouse #3 immunized with soluble NBI-6024, challenge peptide 25 μM

| Substance | Proliferative response over medium only (background) [1] | Proliferative response, Mean cpm ± sem [3] | S.I. (Stimulation Index) [3] | CPM ± SEM [6, 9] | CPM ± SEM [6, 10] | CPM ± SEM [6, 11] | CPM ± SEM [6, 12] | CPM ± SEM [6, 13] | CPM ± SEM [6, 14] | CPM ± SEM [6, 15] | CPM ± SEM [6, 16] | CPM ± SEM [6, 17] | further results |
| --- | --- | --- | --- | --- | --- | --- | --- | --- | --- | --- | --- | --- | --- |
| NBI-6024: insulin B chain 9-23 with alanine substitutions at positions 16 and 19 (SHLVEALALVAGERG) | little or no proliferation over medium only (background) | 566 ± 30 cpm | 2.63 | 48,319 ± 1918 CPM | 160,673 ± 2269 CPM | 268,005 ± 11198 CPM | 54,519 ± 5666 CPM | 126,123 ± 13851 CPM | 202,707 ± 8125 CPM | 64,239 ± 9493 CPM | 140,836 ± 11778 CPM | 240,278 ± 15015 CPM | S.I. (Stimulation Index) [2]: 1.01 and 1.16; CPM ± SEM [4, 7]: 6,379 ± 1,485 CPM; % Inhibition [4, 7]: 30.0%; CPM ± SEM [4, 8]: 4,305 ± 941 CPM; % Inhibition [4, 8]: 52.9%; Reduction of the incidence of diabetes compared to the untreated group ([5]; female NOD mice, 20 mg/kg (400 μg/mouse) s.c. weekly for 12 weeks then every other week until Week 35, p<0.004, FIG. 11): 60-70%; Incidence of diabetes compared to neurotensin treated or untreated group ([5]; second experiment, NOD mice, 20 mg/kg s.c., FIG. 12): reduced incidence of diabetes; Cross-reactive response to Insulin B chain (9-23) ([6]; CFA-emulsified peptide): not seen; Proliferative response to challenge with the immunizing analogue ([6]; lymph node cells from mice immunized with the analogue in CFA, dose-dependent): strong proliferative response; Cross-reactive response to Insulin B chain (9-23) ([6]; lymphocytes from mice immunized with the soluble peptide): also responded to Insulin B chain (9-23); Proliferative response to NBI-6024 challenge in vitro ([6]; spleen and inguinal lymph node cells after soluble administered peptide): strong proliferative response |
| Native 9-23: native peptide, residues 9-23 of human insulin B chain (SEQ ID NO:2) (SHLVEALYLVCGERG; Residues 9-23 of human insulin B chain; listed as Homo sapiens) [reference compound] | significant response | 28,593 ± 4664 cpm | 132.99 | 16,870 ± 4469 CPM | 21,292 ± 3216 CPM | 33,317 ± 3619 CPM | 17,262 ± 602 CPM | 19,648 ± 2169 CPM | 30,612 ± 3557 CPM | 25,825 ± 3841 CPM | 58,567 ± 2737 CPM | 113,366 ± 515 CPM | Response (cpm) of T cell clone PD12-2.40 ([2]; 50 μg/ml peptide, 72 h, 3H-thymidine, no antigen 682 cpm): 32221 cpm; S.I. (Stimulation Index) ([2]; listed as Insulin B Chain (9-23)): 96.16 and 98.4; CPM ± SEM ([4]; B(9-23) 5 μM alone, medium only 305 ± 13): 9,149 ± 1,062 CPM; Incidence of diabetes (percent of mice diabetic) ([5]; NOD mice, 400 μg s.c. weekly, 13 treatments, neurotensin as control, FIG. 10): reduced the incidence of diabetes |
